Results published in US12509460B2 (Skyhawk Therapeutics, Inc., priority 2019, dated 2025).
Where “and” joins values, the source holds several entries; their conditions need not be identical. Equal entries are not always repeated. Where two headings read alike, the source gives them in different places.

What was measured:
MDR1 = test: Blood-brain-barrier (BBB) penetration potential via MDCK-MDR1 permeability assay; conditions: dog, MDCK-MDR1, pH 7.4, MDCK-MDR1: Efflux
MDR1 (P-gp) = test: as above; conditions: dog; for Papp A→B at 120 min, 5 μM: MDCK-MDR1, pH 7.4, MDCK-MDR1: Papp A-B; for Papp B→A at 120 min, 5 μM: MDCK-MDR1, pH 7.4, MDCK-MDR1: Papp B-A
[1] = system: MDR1-MDCK cell monolayers; test: as above
[2] = system: SMN protein in spinal muscular atrophy (SMA) patient fibroblasts (GM03813, Coriell); test: SMN protein assay, Mesoscale Discovery (MSD); assay type: cell-based, human; conditions: for EC50: read-out: SMN2 protein EC50
Summary of the method: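 Absolute SMN levels were quantified by MSD against an SMN protein standard curve (1 μg/ml to 19.5 pg/ml) run on each plate. Samples were lysates of GM03813 patient fibroblasts (7000 cells/well) treated 48 hours with compound doses from 2.5 μM down to 0.6 nM.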

[3] = Quantitative splicing assay (HTT), qPCR; assay type: cell-based, human; conditions: Homo sapiens, GM04724, 24 h, GM04724 lymphoblasts, qPCR, read-out: HTT Splicing: E49-50 EC50
Procedure: Example A9: Quantitative Splicing Assay (HTT)
GM04724 (CAG 70/20) Huntington's disease patient lymphoblasts (Coriell) are plated in 96-well v-bottom plates at 50,000 cells/well. Immediately after plating, cells are dosed with compound for 24 h at concentrations ranging from 2.5 uM to 0.15 nM (0.1% DMSO). Treated cells are lysed and cDNA synthesized using the Fast Advanced Cells-to-Ct kit (Thermofisher A35378) according to the manufacturer's instructions. 2 uL of each cDNA are used in qPCR reactions to confirm the compound-induced inclusion of a cryptic exon within intron 49 of the Huntingtin (HTT) transcripts. The qPCR reactions are prepared in 384-well plates in 10 uL volume, using TagMan™ Fast Advanced Master Mix [ThermoFisher, 4444965] with primers and probes shown in the table below. Reactions are run in a Quant studio 6 qPCR instrument with default settings.

[4] = system: mHTT protein in GM04724 (CAG 70/20) Huntington's disease patient lymphoblast cells; test: mHTT protein assay, 2B7-MW1 assay via Mesoscale Discovery (MSD); assay type: cell-based, human
Summary of the method: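 Signal from the 2B7-MW1 antibody pair on MSD, rising with polyQ length and smaller HTT fragments, measured mHTT after 48 h compound exposure (0.6 nM–10 μM) in GM04724 cells. A parallel replicate plate gave CellTiter Glo viability.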

[5] = system: SMN FL and SMN Δ7 in spinal muscular atrophy (SMA) patient fibroblasts (GM03813, Coriell); test: Quantitative splicing assay (SMN), qPCR; assay type: cell-based, human; conditions: Homo sapiens, Fibroblast, 24 h, SMA patient fibroblasts (GM03813), 24 h; read-out: SMN2 Splicing FL EC50
Procedure: Spinal muscular atrophy (SMA) patient fibroblasts (GM03813, Coriell) are plated in 96-well plates at 50,000 cells/well. […] Treated cells are lysed and cDNA synthesized using the Fast Advanced Cells-to-Ct kit (Thermofisher A35378) according to the manufacturer's instructions. 2 μL of each cDNA are used in qPCR reactions. […] Reactions are run in a Quant Studio 6 qPCR instrument with default settings.

[6] = SMA patient fibroblasts GM03813, 48 hours, MSD
[7] = GM04724 Huntington's disease patient lymphoblasts
[8] = SMA patient fibroblasts (GM03813), 48 hours
[9] = GM04724 (CAG 70/20) Huntington's disease patient lymphoblasts

Row | Structure (SMILES) | efflux ratio at 120 min, 5 μM (MDR1; efflux ratio) | Papp A→B at 120 min, 5 μM (MDR1 (P-gp); A-B direction) [×10⁻⁶ cm/s] | Papp B→A at 120 min, 5 μM (MDR1 (P-gp); B-A direction) [×10⁻⁶ cm/s] | MDCK-MDR1: % Recov A-B ([1]; A-B direction) | MDCK-MDR1: % Recov B-A ([1]; B-A direction) | EC50 [2, 6] [nM] | EC50 [3] [nM] | EC50 [4, 7] [nM] | MDCK-MDR1: Papp A-B ([1]; A-B direction) | MDCK-MDR1: Papp B-A ([1]; B-A direction) | MDCK-MDR1: Efflux ([1]; efflux ratio) | SMN2 protein EC50 [2, 6] | efflux ratio at 120 min, 5 μM (MDR1) | Papp A→B at 120 min, 5 μM (MDR1 (P-gp); A-B) [×10⁻⁶ cm/s] | Papp B→A at 120 min, 5 μM (MDR1 (P-gp); B-A) [×10⁻⁶ cm/s] | MDCK-MDR1: % Recov A-B ([1]; A-B) [%] | MDCK-MDR1: % Recov B-A ([1]; B-A) [%] | EC50 [2, 8] [nM] | EC50 [4, 9] [nM] | EC50 [5] [nM]
1 | Cc1cnc(-c2ccc(-c3ccc(N(C)C4CC5CCC(N5)C4F)nn3)c(O)c2)o1 (single isomer, unassigned) [Compound 48B] | 4 | 6.56 | 24.5 | 67% | 84% | 0.01 to 15 | 16 to 50 | 16 to 50 | – | – | – | – | – | – | – | – | – | – | – | –
2 | CN(c1ccc(-c2ccc(-c3cnn(C)c3)cc2O)nn1)C1CC2COCC(N2)C1F (single isomer, unassigned) [Compound 80A] | 11 | 4.93 | 53.6 | 68% | 88% | 101 to 500 | 51 to 100 | 51 to 100 | – | – | – | – | – | – | – | – | – | – | – | –
3 | CN(c1ccc(-c2ccc(-c3cnn(C)c3)cc2O)nn1)[C@@H]1C[C@H]2CC(F)(F)[C@@H](C1)N2 [Compound 3A, 2-(6-(((1S,3R,5R)-6,6-difluoro-8-azabicyclo[3.2.1]octan-3-yl)(methyl)amino)pyridazin-3-yl)-5-(1-methyl-1H-pyrazol-4-yl)phenol] | 2 | 19.3 | 33.8 | 75% | 81% | 16 to 50 | 0.01 to 15 | 16 to 50 | – | – | – | – | – | – | – | – | – | – | – | –
4 | CN(c1ccc(-c2ccc(-n3nccn3)cc2O)nn1)[C@H]1C[C@@H]2CCC[C@@H](N2)[C@H]1F [Compound 5B, 2-(6-(((1R,2R,3S,5S)-2-fluoro-9-azabicyclo[3.3.1]nonan-3-yl)(methyl)amino)pyridazin-3-yl)-5-(2H-1,2,3-triazol-2-yl)phenol] | 2 | 5.84 | 9.91 | 30% | 52% | 101 to 500 | 0.01 to 15 | 0.01 to 15 | – | – | – | – | – | – | – | – | – | – | – | –
5 | CN(c1ccc(-c2cc3c(=O)[nH]ccc3s2)nn1)[C@@H]1C[C@H]2CC[C@H](N2)[C@@H]1F [Compound 6A, 2-(6-(((1S,2S,3R,5R)-2-fluoro-8-azabicyclo[3.2.1]octan-3-yl)(methyl)amino)pyridazin-3-yl)thieno[3,2-c]pyridin-4(5H)-one] | 74 | 0.09 | 6.69 | 90% and 95% | 91% and 82% | 51 to 100 | 10 to 501 | – | 0.06 10^−6, cm/s | 7.34 10^−6, cm/s | 121 | E (501 ≤ E ≤ 10.000) | – | – | – | – | – | – | – | –
6 | CN(c1ccc(-c2ccc(-n3ccnc3)cc2O)nn1)[C@@H]1C[C@H]2CC(F)(F)[C@@H](C1)N2 [Compound 13A, 2-(6-(((1S,3R,5R)-6,6-difluoro-8-azabicyclo[3.2.1]octan-3-yl)(methyl)amino)pyridazin-3-yl)-5-(1H-imidazol-1-yl)phenol] | 6 | 8.7 | 50.5 | 92% | 86% | 0.01 to 15 | 0.01 to 15 | 16 to 50 | – | – | – | – | – | – | – | – | – | – | – | –
7 | CN(c1ccc(-c2ccc(-c3cnn(C(F)F)c3)cc2O)nn1)[C@@H]1C[C@H]2CC[C@H](N2)[C@@H]1F [Compound 20A, 5-(1-(difluoromethyl)-1H-pyrazol-4-yl)-2-(6-(((1S,2S,3R,5R)-2-fluoro-8-azabicyclo[3.2.1]octan-3-yl)(methyl)amino)pyridazin-3-yl)phenol] | 9 | 4.68 | 39.9 | 47% | 71% | 16 to 50 | 16 to 50 | 16 to 50 | – | – | – | – | – | – | – | – | – | – | – | –
8 | CN(c1ccc(-c2ccc(-c3cnn(C(F)F)c3)cc2O)nn1)[C@H]1C[C@@H]2CC[C@@H](N2)[C@H]1F [Compound 20B, 5-(1-(difluoromethyl)-1H-pyrazol-4-yl)-2-(6-(((1R,2R,3S,5S)-2-fluoro-8-azabicyclo[3.2.1]octan-3-yl)(methyl)amino)pyridazin-3-yl)phenol] | 11 | 3.59 | 39.2 | 45% | 65% | – | 0.01 to 15 | 0.01 to 15 | – | – | – | E (501 ≤ E ≤ 10.000) | – | – | – | – | – | – | – | –
9 | CN(c1ccc(-c2ccc(-c3nnco3)cc2O)nn1)[C@@H]1C[C@H]2CC[C@H](N2)[C@@H]1F [Compound 44A, 2-(6-(((1S,2S,3R,5R)-2-fluoro-8-azabicyclo[3.2.1]octan-3-yl)(methyl)amino)pyridazin-3-yl)-5-(1,3,4-oxadiazol-2-yl)phenol] | 6 | 8.12 | 50.9 | 87% | 86% | 101 to 500 | 16 to 50 | 0.01 to 15 | – | – | – | – | – | – | – | – | – | – | – | –
10 | CN(c1ccc(-c2cc3oc(C(=O)N4CCC4)cc3cc2O)nn1)[C@@H]1C[C@H]2CC[C@H](N2)[C@@H]1F [Compound 112A, azetidin-1-yl(6-(6-(((1S,2S,3R,5R)-2-fluoro-8-azabicyclo[3.2.1]octan-3-yl)(methyl)amino)pyridazin-3-yl)-5-hydroxybenzofuran-2-yl)methanone] | – | – | – | – | – | – | – | – | – | – | – | – | 74 | 0.6 | 43.8 | 95 | 78 | 0.01 to 15 | 51 to 100 | 51 to 100
11 | Cc1nc2cc(-c3ccc(N(C)[C@H]4C[C@@H]5CC[C@@H](N5)[C@H]4F)nn3)c(O)cc2c(=O)n1CC(F)(F)F [Compound 113B, 7-(6-(((1R,2R,3S,5S)-2-fluoro-8-azabicyclo[3.2.1]octan-3-yl)(methyl)amino)pyridazin-3-yl)-6-hydroxy-2-methyl-3-(2,2,2-trifluoroethyl)quinazolin-4(3H)-one] | – | – | – | – | – | – | – | – | – | – | – | – | 232 | 0.3 | 68.4 | 101 | 123 | 0.01 to 15 | 101 to 500 | 16 to 50
